A short description of data set [1]: Volume of distribution in Wistar rat at 1 mg/kg, iv. The data set is classed as ADME, organism-based. More on the design: dose 1 mg/kg, route intravenous. As to conditions: in vivo.
In data set [2] the test system is Rattus norvegicus. The experiment in a line: AUC (0 to 48 hrs) in Wistar rat at 0.5 mg/kg, sc. The data set is classed as ADME, organism-based, Plasma. Further details: time < 48 hr, dose 0.5 mg/kg, route subcutaneous. As to conditions: in vivo.
Data set [3] in a line: Terminal half life in Wistar rat at 1 mg/kg, iv. The data set is classed as ADME, organism-based. More on the design: dose 1 mg/kg, route intravenous. Conditions: in vivo, read-out: beta t1/2 (converted).
A short description of data set [4]: Lipophilicity, logP of the compound. The data set is classed as physicochemical. Conditions: octanol/water.
The test system of data set [5] is Rattus norvegicus. The experiment in a line: Anabolic activity in orchidectomized rat assessed as stimulation of bulbocavernosus/levator ani muscle weight treated subcutaneously once daily for 14 days by Hershberger assay. The data set is classed as functional.
The nature of data set [6]: AUC (0 to infinity) in Wistar rat at 1 mg/kg, iv. The data set is classed as ADME, organism-based. Further details: dose 1 mg/kg, route intravenous, time infinity. Conditions: plasma.
Data set [7] deals with Rattus norvegicus. In words: Androgenic activity in orchidectomized rat assessed as stimulation of prostate weight treated at 0.3 mg/kg, sc once daily for 14 days by Hershberger assay. Conditions: in vivo, 336 h. The data set is classed as organism-based, Prostate gland. Further details: dose 0.3 mg/kg, route subcutaneous.
The nature of data set [8]: Cmax in Wistar rat at 0.5 mg/kg, sc. Conditions: in vivo. More on the design: dose 0.5 mg/kg, route subcutaneous. The data set is classed as ADME, organism-based.
Data set [9] can be described thus: Skin permeability by silicone and isopropyl myristate (70:30) containing artificial membranes based skin PAMPA method. The data set is classed as ADME.
The target of data set [10] is T1, Androgen receptor (Homo sapiens) (UniProt P10275).
T1 sequence (whole entry): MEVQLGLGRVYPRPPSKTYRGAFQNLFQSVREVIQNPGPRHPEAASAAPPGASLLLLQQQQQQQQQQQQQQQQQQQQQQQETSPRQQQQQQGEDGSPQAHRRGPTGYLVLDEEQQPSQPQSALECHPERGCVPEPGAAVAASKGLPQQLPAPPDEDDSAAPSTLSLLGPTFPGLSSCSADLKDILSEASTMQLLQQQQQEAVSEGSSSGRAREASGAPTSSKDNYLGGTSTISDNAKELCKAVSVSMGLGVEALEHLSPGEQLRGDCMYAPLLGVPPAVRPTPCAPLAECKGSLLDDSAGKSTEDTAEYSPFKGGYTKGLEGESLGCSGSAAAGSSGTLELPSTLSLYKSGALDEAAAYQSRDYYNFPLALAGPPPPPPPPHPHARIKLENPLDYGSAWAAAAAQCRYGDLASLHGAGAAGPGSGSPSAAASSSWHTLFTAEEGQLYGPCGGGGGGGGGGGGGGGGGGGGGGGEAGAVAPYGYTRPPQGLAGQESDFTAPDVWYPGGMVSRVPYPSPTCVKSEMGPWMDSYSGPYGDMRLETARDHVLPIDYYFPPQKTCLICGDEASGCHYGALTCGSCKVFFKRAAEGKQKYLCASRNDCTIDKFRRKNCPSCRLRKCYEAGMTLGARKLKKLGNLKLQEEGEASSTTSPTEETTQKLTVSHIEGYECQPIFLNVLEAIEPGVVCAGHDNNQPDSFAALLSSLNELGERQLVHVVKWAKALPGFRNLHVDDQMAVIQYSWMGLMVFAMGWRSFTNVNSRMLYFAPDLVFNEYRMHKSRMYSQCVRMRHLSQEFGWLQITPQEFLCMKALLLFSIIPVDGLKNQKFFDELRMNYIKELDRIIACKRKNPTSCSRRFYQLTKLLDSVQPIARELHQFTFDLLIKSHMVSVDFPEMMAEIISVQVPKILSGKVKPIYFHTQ
In words: Agonist activity at human androgen receptor expressed in mouse C2C12 cells by androgen-specific response element-driven luciferase reporter gene assay relative to DHT. The data set is classed as cell-based. On the technique in general: A reporter such as luciferase makes a cellular process visible.

Data set [11] in a line: Tmax in Wistar rat at 0.5 mg/kg, sc. The data set is classed as ADME, organism-based. More on the design: dose 0.5 mg/kg, route subcutaneous. As to conditions: in vivo.
A further data set deals with Zone of skin. In words: Skin permeability in human cadaver skin in Franz diffusion cell system. The data set is classed as ADME.
For another data set, the target named is T2, Progesterone receptor (Homo sapiens, UniProt P06401).
T2 sequence (P06401 whole entry): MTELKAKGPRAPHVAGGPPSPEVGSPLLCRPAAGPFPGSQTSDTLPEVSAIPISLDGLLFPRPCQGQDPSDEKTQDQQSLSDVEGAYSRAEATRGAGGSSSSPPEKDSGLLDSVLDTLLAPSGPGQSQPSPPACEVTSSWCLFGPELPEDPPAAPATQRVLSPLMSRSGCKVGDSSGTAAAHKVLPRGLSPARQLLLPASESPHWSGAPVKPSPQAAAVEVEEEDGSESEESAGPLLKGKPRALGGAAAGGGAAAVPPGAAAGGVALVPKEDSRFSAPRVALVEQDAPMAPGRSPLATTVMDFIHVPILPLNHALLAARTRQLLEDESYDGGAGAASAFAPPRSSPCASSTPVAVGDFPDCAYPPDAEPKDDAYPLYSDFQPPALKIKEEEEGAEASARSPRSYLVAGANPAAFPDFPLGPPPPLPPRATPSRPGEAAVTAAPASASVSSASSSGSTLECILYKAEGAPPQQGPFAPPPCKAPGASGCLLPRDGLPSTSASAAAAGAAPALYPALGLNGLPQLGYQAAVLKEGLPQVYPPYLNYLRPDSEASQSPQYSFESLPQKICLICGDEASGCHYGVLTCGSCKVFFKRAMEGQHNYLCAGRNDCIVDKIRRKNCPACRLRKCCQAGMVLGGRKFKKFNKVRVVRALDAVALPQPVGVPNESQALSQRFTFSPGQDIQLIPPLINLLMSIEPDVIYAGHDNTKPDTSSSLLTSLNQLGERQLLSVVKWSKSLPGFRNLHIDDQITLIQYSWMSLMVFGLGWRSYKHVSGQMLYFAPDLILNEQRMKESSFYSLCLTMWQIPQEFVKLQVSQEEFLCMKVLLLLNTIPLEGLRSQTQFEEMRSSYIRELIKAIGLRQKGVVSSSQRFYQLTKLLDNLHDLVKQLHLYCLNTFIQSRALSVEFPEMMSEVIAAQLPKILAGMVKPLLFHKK
The experiment in a line: Binding affinity to progesterone receptor (unknown origin) incubated for 4 hrs.

Data set [12] in a line: Skin drug retention by silicone and isopropyl myristate (70:30) containing artificial membranes based skin PAMPA method. In general terms: In PAMPA a lipid-coated filter parts donor from acceptor wells.
Data set [13] relates to Rattus norvegicus. In words: Bioavailability in Wistar rat at 0.5 mg/kg, sc. The data set is classed as ADME, organism-based. Conditions: in vivo.

Active and inactive are the calls of the source. The rule behind the calls is not given here.

Regarding `CO[C@@H]1C(c2ccc(C#N)c(Cl)c2C)=NN2CC[C@H](O)[C@@H]12`, the Vd (usually the apparent volume that relates the amount in the body to the concentration in plasma or blood) in [1] was 4.6 L/kg. The AUC (in general, concentration integrated over time) with Rattus norvegicus [2] turned out to be 670 ng·h/mL. Moreover, the half-life in data set [3] was 5.7 h. Also, in [4], the logP – broadly, a log measure of how a compound divides between an organic and an aqueous phase – turned out to be 2. Also, the figures for the Activity result with Rattus norvegicus [5] and in the data set on Rattus norvegicus [7] were “Dose-dependent effect” and “Non-toxic”, respectively. Also, the ED50 (as a rule, the dose that gives a 50% effect, or the effect in half of the subjects) in the data set on Rattus norvegicus [5] (sc, 336 h) was 0.07 mg/kg. The AUC(0-inf) (in general, the area under the concentration-time curve extrapolated to infinity) in data set [6] was 708 ng·h/mL. Moreover, the peak level in data set [8] (Cmax) was 79 ng/mL. Also, in [9], the permeability entry is reported as “permeable”. Also, in data set [10], the Emax (as a rule, the maximal effect, on the per cent scale that the assay sets) was determined as 97%. The Tmax (in general, the time from dosing to the highest level) in [11] is 1.5 h. Further, the Jss with Zone of skin is given as 2 ug/cm2.hr. On Progesterone receptor, the IC50 (in general, the concentration that gives 50% inhibition) was determined as 700 nM. Besides, the Drug uptake result in data set [12] is “inactive”. Further, the F with Rattus norvegicus [13] was found to be 75%.

The values are drawn from ChEMBL document CHEMBL3351728, “3-alkoxy-pyrrolo[1,2-b]pyrazolines as selective androgen receptor modulators with ideal physicochemical properties for transdermal administration” (J Med Chem, 2014).
